In patent US20220009920A1 (GB005, Inc., priority 2020, published 2022):

Tests used:
Assay in all cases: Large panel kinase profiling
Format in all cases: biochemical
Details in all cases: 1 μM test article, 1 mM ATP
LCK = LCK (Homo sapiens, UniProt P06239)
Method in brief: (§1)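 CSox-Sensor fluorescence readout; test article 1 μM, ATP 1 mM, 30° C.; kinetic reads at 1-min intervals, Ex 360/Em 485 nm.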

ROCK1 = ROCK1 (Homo sapiens, UniProt Q13464)
Method in brief: as §1

PLK1 = PLK1 (Homo sapiens, UniProt P53350)
Sequence of PLK1 (P53350 whole entry, species assumed): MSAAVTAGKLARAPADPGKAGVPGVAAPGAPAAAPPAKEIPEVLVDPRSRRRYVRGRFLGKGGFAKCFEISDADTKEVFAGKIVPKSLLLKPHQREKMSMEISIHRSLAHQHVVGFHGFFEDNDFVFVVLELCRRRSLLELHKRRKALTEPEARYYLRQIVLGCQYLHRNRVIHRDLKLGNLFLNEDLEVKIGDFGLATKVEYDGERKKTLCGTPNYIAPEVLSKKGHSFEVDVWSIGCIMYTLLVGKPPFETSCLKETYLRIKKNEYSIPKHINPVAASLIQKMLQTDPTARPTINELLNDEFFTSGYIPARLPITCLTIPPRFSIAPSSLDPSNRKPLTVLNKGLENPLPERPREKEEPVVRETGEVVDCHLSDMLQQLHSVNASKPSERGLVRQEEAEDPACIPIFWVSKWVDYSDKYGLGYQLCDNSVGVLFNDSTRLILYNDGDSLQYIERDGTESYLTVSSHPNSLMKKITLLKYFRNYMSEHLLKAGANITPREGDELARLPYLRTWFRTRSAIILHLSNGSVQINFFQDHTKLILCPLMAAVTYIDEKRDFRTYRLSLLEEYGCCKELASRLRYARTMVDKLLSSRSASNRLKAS
Method in brief: as §1

PRKD2 = target: T1, PRKD2 (Homo sapiens, UniProt Q9BZL6)
T1 sequence (Q9BZL6 1-878): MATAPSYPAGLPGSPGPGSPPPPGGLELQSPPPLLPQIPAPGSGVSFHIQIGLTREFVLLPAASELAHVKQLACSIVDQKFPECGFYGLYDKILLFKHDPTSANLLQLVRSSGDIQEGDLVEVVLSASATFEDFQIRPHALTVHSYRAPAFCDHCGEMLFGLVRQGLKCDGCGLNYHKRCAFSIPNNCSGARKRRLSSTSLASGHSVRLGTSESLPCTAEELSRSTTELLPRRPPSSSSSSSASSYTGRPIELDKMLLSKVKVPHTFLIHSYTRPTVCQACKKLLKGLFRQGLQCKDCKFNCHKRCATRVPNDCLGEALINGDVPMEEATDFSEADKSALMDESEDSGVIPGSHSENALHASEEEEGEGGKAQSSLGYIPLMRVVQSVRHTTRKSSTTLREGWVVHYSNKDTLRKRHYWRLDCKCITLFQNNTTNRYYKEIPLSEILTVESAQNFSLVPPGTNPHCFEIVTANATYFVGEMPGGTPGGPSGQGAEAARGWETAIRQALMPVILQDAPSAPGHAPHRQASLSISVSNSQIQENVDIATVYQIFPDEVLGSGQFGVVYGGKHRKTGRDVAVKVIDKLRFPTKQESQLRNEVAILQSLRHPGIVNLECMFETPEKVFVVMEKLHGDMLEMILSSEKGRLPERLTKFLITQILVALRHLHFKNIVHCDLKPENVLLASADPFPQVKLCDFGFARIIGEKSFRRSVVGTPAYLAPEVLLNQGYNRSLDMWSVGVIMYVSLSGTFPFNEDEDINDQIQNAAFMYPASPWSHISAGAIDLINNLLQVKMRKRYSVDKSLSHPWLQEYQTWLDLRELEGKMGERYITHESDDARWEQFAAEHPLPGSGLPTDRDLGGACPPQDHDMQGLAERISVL
Method in brief: as §1

DYRK2 = target: T2, DYRK2 (Homo sapiens, UniProt Q92630)
T2 construct: AssayQuant Technologies, Inc. (service laboratory)
T2 sequence (Q92630 1-601): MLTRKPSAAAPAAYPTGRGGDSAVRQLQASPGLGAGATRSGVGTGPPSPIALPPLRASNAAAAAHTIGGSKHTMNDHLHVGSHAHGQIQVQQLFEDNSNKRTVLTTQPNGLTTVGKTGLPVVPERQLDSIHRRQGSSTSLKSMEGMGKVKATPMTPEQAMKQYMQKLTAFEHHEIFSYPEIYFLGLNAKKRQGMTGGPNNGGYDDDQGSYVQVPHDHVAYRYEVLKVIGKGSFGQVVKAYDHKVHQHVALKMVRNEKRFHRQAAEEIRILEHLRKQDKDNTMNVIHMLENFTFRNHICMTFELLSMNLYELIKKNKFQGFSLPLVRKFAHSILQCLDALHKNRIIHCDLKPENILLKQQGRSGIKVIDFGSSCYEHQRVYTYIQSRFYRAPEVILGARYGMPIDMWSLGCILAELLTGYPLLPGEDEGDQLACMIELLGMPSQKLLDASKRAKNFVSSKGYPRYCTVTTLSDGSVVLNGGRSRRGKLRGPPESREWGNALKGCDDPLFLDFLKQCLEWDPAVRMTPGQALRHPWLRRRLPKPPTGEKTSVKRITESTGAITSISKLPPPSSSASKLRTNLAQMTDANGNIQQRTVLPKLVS
Method in brief: as §1

MAP3K8 = target: T3, MAP3K8 (Homo sapiens, UniProt P41279)
T3 construct: AssayQuant Technologies, Inc. (service provider)
T3 sequence (P41279 whole entry, species assumed): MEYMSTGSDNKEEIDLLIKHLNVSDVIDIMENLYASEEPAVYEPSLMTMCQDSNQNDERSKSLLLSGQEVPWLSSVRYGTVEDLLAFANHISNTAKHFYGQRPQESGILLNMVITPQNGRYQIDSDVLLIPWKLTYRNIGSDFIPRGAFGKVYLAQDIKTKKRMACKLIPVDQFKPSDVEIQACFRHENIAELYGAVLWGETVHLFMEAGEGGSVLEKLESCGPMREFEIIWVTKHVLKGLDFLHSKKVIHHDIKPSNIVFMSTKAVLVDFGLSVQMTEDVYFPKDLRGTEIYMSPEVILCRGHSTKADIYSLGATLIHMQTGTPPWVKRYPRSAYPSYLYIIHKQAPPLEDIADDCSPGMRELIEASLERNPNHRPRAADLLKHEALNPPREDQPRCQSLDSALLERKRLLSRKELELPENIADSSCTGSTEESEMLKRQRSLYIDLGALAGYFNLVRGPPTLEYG
Method in brief: as §1

PKN1 = PKN1 (Homo sapiens, UniProt Q16512)
Sequence of PKN1 (Q16512 whole entry, species assumed): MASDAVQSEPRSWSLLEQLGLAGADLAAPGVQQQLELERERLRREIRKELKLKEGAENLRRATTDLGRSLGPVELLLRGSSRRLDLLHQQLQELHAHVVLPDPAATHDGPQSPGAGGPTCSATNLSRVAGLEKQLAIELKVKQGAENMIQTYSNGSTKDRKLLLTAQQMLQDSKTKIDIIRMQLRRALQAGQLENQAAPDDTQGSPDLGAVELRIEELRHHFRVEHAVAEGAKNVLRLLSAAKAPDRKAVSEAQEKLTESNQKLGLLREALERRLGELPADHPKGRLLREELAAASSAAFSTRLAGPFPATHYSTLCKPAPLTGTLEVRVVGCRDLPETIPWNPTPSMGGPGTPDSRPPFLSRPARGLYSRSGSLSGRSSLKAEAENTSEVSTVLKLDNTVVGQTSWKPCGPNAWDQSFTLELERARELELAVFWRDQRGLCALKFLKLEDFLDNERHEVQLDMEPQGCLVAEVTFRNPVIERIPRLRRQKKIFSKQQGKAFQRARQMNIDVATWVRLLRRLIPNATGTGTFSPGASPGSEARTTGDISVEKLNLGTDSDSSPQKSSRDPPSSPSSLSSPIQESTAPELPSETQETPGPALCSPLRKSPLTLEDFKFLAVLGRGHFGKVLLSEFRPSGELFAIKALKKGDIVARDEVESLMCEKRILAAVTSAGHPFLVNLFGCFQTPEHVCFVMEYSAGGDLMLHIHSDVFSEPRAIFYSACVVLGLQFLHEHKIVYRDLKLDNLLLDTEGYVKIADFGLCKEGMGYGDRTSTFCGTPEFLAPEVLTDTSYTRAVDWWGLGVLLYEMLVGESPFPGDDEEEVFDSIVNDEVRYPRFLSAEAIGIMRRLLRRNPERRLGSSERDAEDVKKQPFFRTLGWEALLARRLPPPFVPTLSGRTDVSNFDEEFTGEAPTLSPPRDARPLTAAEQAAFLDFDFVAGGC
Method in brief: as §1

Sequence of ROCK1 (Q13464 whole entry, species assumed): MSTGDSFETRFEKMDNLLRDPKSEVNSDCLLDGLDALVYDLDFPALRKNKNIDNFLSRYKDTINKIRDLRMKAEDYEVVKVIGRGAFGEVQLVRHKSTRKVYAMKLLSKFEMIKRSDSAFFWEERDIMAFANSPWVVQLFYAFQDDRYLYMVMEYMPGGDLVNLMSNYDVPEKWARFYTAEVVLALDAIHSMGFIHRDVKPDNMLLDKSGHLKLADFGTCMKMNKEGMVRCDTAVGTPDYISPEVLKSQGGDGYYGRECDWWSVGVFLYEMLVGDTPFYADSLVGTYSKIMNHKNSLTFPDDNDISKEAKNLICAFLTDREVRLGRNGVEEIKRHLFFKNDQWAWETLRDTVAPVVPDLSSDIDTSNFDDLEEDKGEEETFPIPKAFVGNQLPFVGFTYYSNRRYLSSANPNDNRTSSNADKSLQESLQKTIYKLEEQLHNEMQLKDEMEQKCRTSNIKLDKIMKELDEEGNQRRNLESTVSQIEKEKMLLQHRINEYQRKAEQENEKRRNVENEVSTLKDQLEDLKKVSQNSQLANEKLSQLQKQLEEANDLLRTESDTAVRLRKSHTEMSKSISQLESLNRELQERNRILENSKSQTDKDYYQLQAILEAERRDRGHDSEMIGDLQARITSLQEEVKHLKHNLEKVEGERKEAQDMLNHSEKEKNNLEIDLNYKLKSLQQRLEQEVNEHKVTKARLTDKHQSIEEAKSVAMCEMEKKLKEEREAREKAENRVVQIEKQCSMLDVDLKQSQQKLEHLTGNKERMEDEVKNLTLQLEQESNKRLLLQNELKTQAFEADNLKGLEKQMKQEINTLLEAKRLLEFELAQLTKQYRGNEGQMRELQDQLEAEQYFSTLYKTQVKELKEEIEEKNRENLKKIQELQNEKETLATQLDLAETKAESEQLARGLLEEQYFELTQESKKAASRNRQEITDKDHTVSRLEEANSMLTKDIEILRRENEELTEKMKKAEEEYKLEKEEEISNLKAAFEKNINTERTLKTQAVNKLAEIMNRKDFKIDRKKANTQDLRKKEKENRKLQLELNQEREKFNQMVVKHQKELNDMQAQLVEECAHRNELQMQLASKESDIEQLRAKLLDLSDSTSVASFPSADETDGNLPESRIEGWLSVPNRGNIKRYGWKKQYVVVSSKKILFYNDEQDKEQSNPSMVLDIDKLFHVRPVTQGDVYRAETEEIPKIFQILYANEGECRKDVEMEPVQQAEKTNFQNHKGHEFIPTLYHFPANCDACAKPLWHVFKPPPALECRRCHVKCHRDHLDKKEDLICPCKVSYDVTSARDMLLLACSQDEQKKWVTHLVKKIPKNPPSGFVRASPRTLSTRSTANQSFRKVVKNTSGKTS
Sequence of LCK (P06239 whole entry, species assumed): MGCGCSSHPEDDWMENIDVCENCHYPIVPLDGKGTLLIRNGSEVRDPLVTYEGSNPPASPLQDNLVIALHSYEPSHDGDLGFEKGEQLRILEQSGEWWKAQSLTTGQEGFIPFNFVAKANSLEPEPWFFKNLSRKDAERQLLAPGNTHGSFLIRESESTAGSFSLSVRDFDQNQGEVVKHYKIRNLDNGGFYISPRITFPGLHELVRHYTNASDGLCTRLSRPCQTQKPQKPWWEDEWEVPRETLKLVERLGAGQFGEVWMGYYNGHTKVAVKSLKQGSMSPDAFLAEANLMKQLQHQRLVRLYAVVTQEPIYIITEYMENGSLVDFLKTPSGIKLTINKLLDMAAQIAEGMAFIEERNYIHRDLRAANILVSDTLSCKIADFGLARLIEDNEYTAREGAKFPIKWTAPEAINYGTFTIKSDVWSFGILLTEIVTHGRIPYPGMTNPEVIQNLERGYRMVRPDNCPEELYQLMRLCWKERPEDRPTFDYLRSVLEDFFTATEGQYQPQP

C=CC(=O)N1CCCC(c2c(F)cc(C(N)=O)c3[nH]c4c(c23)CCCCC4)C1 (single isomer, unassigned) [Compound 5-6]
inhibition at 1 µM (LCK): 0.2% | inhibition at 1 µM (ROCK1): 3.5% | inhibition at 1 µM (PLK1): -6.3% | inhibition at 1 µM (PRKD2): -14.2% | inhibition at 1 µM (DYRK2): 6.1% | inhibition at 1 µM (MAP3K8): 7.4% | inhibition at 1 µM (PKN1): 5.2%

C=CC(=O)N1CCC[C@@H](c2c(F)cc(C(N)=O)c3[nH]c4c(c23)CCC4)C1 [Compound 10-2, (S)-8-(1-acryloylpiperidin-3-yl)-7-fluoro-1,2,3,4-tetrahydrocyclo-penta[b]indole-5-carboxamide]
inhibition at 1 µM (LCK): 18.3% | inhibition at 1 µM (ROCK1): 13.7% | inhibition at 1 µM (PLK1): 13.8% | inhibition at 1 µM (PRKD2): -12.1% | inhibition at 1 µM (DYRK2): 0.3% | inhibition at 1 µM (MAP3K8): 4.5% | inhibition at 1 µM (PKN1): 12%

C=CC(=O)N1CCC[C@@H](c2c(F)cc(C(N)=O)c3[nH]c4c(c23)CC2(CC4)CC2)C1 [Compound 6-2, (S)-5-(1-acryloylpiperidin-3-yl)-6-fluoro-1,2,4,9-tetrahydrospiro[carbazole-3,1′-cyclopropane]-8-carboxamide]
inhibition at 1 µM (LCK): 15.9% | inhibition at 1 µM (ROCK1): 2.5% | inhibition at 1 µM (PLK1): -4.3% | inhibition at 1 µM (PRKD2): -32.9% | inhibition at 1 µM (DYRK2): 13.3% | inhibition at 1 µM (MAP3K8): 10.1% | inhibition at 1 µM (PKN1): -10.2%
